From article PMC12463105, “NSP7 Molecular Degrader Attenuates Coronaviral Infection Through the β‐TrCP1/FBXO5 Axis” (Advanced Science, 2025)

Columns and labels:
HCoV-OC43 = tested on: T1, HCoV-OC43; assay: microbe, parasite or virus in culture; design: HCoV-OC43 infection assay, reduction of viral infection; conditions: Betacoronavirus 1, OC43, read-out: OC43
T1 construct: ATCC VR-1558

SARS-CoV-2 NSP7-HiBiT = conditions: read-out: NSP7- HiBiT; reduction of NSP7-HiBiT signal; degrader

CCSc1nsc(NC(=O)Nc2ccccc2OC)n1 [BC24840, 3-(ethylthio)-5-[3-(o-methoxyphenyl)ureido]-1,2,4-thiadiazole]
IC50 (HCoV-OC43): 11.5 µM
IC50 (SARS-CoV-2 NSP7-HiBiT): > 100 µM

CCSc1nsc(NC(=O)Nc2cccc(OC)c2)n1 [BC24841, 3-(ethylthio)-5-[3-(m-methoxyphenyl)ureido]-1,2,4-thiadiazole]
IC50 (HCoV-OC43): 5.5 µM
IC50 (SARS-CoV-2 NSP7-HiBiT): 12.3 µM

CCSc1nsc(NC(=O)Nc2cccc(Cl)c2)n1 [BC24842, 5-[3-(m-chlorophenyl)ureido]-3-(ethylthio)-1,2,4-thiadiazole]
IC50 (HCoV-OC43): 1.56 µM
IC50 (SARS-CoV-2 NSP7-HiBiT): 2.15 µM

CCSc1nsc(NC(=O)Nc2ccccc2Cl)n1 [BC24843, 5-[3-(o-chlorophenyl)ureido]-3-(ethylthio)-1,2,4-thiadiazole]
IC50 (HCoV-OC43): 16.2 µM
IC50 (SARS-CoV-2 NSP7-HiBiT): 26.2 µM

CCSc1nsc(NC(=O)Nc2ccccc2)n1 [BC24844, 3-(ethylthio)-5-(3-phenylureido)-1,2,4-thiadiazole]
IC50 (HCoV-OC43): 9.06 µM
IC50 (SARS-CoV-2 NSP7-HiBiT): 9.37 µM

CCSc1nsc(NC(=O)Nc2ccccc2[N+](=O)[O-])n1 [BC24846, 3-(ethylthio)-5-[3-(o-nitrophenyl)ureido]-1,2,4-thiadiazole]
IC50 (HCoV-OC43): 11.4 µM
IC50 (SARS-CoV-2 NSP7-HiBiT): 24.3 µM

CCSc1nsc(NC(=O)Nc2cccc(C)c2C)n1 [BC24847, 3-(ethylthio)-5-[3-(2,3-xylyl)ureido]-1,2,4-thiadiazole]
IC50 (HCoV-OC43): 9.14 µM
IC50 (SARS-CoV-2 NSP7-HiBiT): 65.8 µM

CCSc1nsc(NC(=O)Nc2ccc(C)c(C)c2)n1 [BC24848, 3-(ethylthio)-5-[3-(3,4-xylyl)ureido]-1,2,4-thiadiazole]
IC50 (HCoV-OC43): 7.05 µM
IC50 (SARS-CoV-2 NSP7-HiBiT): 15.5 µM

CCSc1nsc(NC(=O)Nc2cc(C)ccc2C)n1 [BC24849, 3-(ethylthio)-5-[3-(2,5-xylyl)ureido]-1,2,4-thiadiazole]
IC50 (HCoV-OC43): 5.35 µM
IC50 (SARS-CoV-2 NSP7-HiBiT): 12.8 µM

CCSc1nsc(NC(=O)Nc2cc(F)cc(F)c2)n1 [BC24850, 5-[3-(3,5-difluorophenyl)ureido]-3-(ethylthio)-1,2,4-thiadiazole]
IC50 (HCoV-OC43): 1.22 µM
IC50 (SARS-CoV-2 NSP7-HiBiT): 2.96 µM

CCSc1nsc(NC(=O)Nc2ccc(C)cc2Cl)n1 [BC24851, 5-[3-(2-chloro-4-tolyl)ureido]-3-(ethylthio)-1,2,4-thiadiazole]
IC50 (HCoV-OC43): 17.4 µM
IC50 (SARS-CoV-2 NSP7-HiBiT): > 100 µM

CCSc1nsc(NC(=O)Nc2ccc(Cl)c(C(F)(F)F)c2)n1 [BC24852, 5-{3-[4-chloro-3-(trifluoromethyl)phenyl]ureido}-3-(ethylthio)-1,2,4-thiadiazole]
IC50 (HCoV-OC43): 0.907 µM
IC50 (SARS-CoV-2 NSP7-HiBiT): 2.76 µM

CCSc1nsc(NC(=O)Nc2cc(OC)ccc2OC)n1 [BC24853, 5-[3-(2,5-dimethoxyphenyl)ureido]-3-(ethylthio)-1,2,4-thiadiazole]
IC50 (HCoV-OC43): 9.87 µM
IC50 (SARS-CoV-2 NSP7-HiBiT): > 100 µM

CCSc1nsc(NC(=O)Nc2ccc(C)cc2)n1 [BC24854, 3-(ethylthio)-5-[3-(p-tolyl)ureido]-1,2,4-thiadiazole]
IC50 (HCoV-OC43): 26.6 µM
IC50 (SARS-CoV-2 NSP7-HiBiT): 45.1 µM

CCSc1nsc(NC(=O)Nc2ccccc2C)n1 [BC24855, 3-(ethylthio)-5-[3-(o-tolyl)ureido]-1,2,4-thiadiazole]
IC50 (HCoV-OC43): 8.23 µM
IC50 (SARS-CoV-2 NSP7-HiBiT): 35.2 µM

CCSc1nsc(NC(=O)Nc2ccc(F)c(Cl)c2)n1 [BC24856, 5-[3-(3-chloro-4-fluorophenyl)ureido]-3-(ethylthio)-1,2,4-thiadiazole]
IC50 (HCoV-OC43): 1.41 µM
IC50 (SARS-CoV-2 NSP7-HiBiT): 11.8 µM

CCSc1nsc(NC(=O)Nc2ccc(OC)cc2)n1 [BC24857, 3-(ethylthio)-5-[3-(p-methoxyphenyl)ureido]-1,2,4-thiadiazole]
IC50 (HCoV-OC43): 88.8 µM
IC50 (SARS-CoV-2 NSP7-HiBiT): > 100 µM

CCOc1ccccc1NC(=O)Nc1nc(SCC)ns1 [BC24858, 5-[3-(o-ethoxyphenyl)ureido]-3-(ethylthio)-1,2,4-thiadiazole]
IC50 (HCoV-OC43): 24.3 µM
IC50 (SARS-CoV-2 NSP7-HiBiT): > 100 µM

CCOc1ccc(NC(=O)Nc2nc(SCC)ns2)cc1 [BC24859, 5-[3-(p-ethoxyphenyl)ureido]-3-(ethylthio)-1,2,4-thiadiazole]
IC50 (HCoV-OC43): 52.1 µM
IC50 (SARS-CoV-2 NSP7-HiBiT): > 100 µM

CCSc1nsc(NC(=O)Nc2cccc(Br)c2)n1 [BC24860, 5-[3-(m-bromophenyl)ureido]-3-(ethylthio)-1,2,4-thiadiazole]
IC50 (HCoV-OC43): 1.18 µM
IC50 (SARS-CoV-2 NSP7-HiBiT): 1.18 µM

CCSc1nsc(NC(=O)Nc2cccc(Cl)c2C)n1 [BC24862, 5-[3-(3-chloro-2-tolyl)ureido]-3-(ethylthio)-1,2,4-thiadiazole]
IC50 (HCoV-OC43): 5.68 µM
IC50 (SARS-CoV-2 NSP7-HiBiT): 7 µM

CCSc1nsc(NC(=O)Nc2cccc(C)c2)n1 [BC24863, 3-(ethylthio)-5-[3-(m-tolyl)ureido]-1,2,4-thiadiazole]
IC50 (HCoV-OC43): 2.03 µM
IC50 (SARS-CoV-2 NSP7-HiBiT): 5.09 µM

CCSc1nsc(NC(=O)Nc2ccccc2CC)n1 [BC24864, 5-[3-(o-ethylphenyl)ureido]-3-(ethylthio)-1,2,4-thiadiazole]
IC50 (HCoV-OC43): 63.8 µM
IC50 (SARS-CoV-2 NSP7-HiBiT): 47.4 µM

CCOC(=O)Cc1ccc(NC(=O)Nc2nc(SCC)ns2)cc1 [BC24865, ethyl (p-{3-[3-(ethylthio)-1,2,4-thiadiazol-5-yl]ureido}phenyl)acetate]
IC50 (HCoV-OC43): 10.7 µM
IC50 (SARS-CoV-2 NSP7-HiBiT): 27.8 µM
